Assay [1] concerns the target Metabotropic glutamate receptor 1 (Rattus norvegicus, UniProt P23385). Briefly: Compound was evaluated for agonistic activity against mGluR1 alpha metabotropic receptor subtype in rat cortical slice model. The assay is classed as functional.
The species named for a further assay is Rattus norvegicus. Briefly: Evaluated for effective concentration in, in vitro electrophysiological model in the rat cortical slice model. The assay is classed as functional.

Some results are limits rather than exact numbers.

Sequence of Metabotropic glutamate receptor 1 (P23385 whole entry): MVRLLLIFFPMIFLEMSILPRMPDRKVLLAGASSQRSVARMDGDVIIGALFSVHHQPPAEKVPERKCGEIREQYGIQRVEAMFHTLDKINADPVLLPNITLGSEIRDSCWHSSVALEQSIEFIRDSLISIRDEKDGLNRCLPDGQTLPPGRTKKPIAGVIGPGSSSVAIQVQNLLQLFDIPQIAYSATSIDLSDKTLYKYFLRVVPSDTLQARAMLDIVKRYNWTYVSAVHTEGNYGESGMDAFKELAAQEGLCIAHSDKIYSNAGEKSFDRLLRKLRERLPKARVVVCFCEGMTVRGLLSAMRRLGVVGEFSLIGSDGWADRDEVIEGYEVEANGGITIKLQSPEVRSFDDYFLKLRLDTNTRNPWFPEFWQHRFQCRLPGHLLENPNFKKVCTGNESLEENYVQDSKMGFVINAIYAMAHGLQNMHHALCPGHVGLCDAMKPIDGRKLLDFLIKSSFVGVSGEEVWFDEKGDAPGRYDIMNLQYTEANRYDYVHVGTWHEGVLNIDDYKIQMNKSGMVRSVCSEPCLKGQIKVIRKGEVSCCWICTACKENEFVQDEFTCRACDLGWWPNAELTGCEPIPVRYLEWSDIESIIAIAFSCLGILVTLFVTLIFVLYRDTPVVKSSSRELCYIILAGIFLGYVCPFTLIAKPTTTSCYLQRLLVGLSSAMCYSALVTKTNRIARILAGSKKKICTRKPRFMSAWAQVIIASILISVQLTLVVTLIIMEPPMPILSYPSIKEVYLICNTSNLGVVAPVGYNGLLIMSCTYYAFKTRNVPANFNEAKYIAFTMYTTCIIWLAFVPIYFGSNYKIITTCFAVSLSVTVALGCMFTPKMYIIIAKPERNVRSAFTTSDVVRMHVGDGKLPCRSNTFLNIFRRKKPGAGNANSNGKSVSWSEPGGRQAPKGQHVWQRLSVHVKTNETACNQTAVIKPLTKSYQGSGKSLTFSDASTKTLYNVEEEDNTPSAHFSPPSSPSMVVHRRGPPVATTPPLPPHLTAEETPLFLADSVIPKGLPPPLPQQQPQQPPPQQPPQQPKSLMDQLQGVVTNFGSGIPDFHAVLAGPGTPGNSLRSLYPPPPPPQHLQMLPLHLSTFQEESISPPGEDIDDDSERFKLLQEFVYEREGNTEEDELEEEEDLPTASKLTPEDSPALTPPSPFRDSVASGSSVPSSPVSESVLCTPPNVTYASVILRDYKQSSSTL

In general, EC50 refers to the concentration that produces a half-maximal response. Higher therefore signals a need for much substance. Take `CCNC(C(=O)O)c1cc(O)no1` (stereo not given): the figures for the EC50 (in assay [1]; in the assay filed under Rattus norvegicus) were over 1000 µM and 320 µM, respectively.

Take `Cc1onc(O)c1C(N)C(=O)O` (stereo not given): the EC50 was over 1000 µM in assay [1] and 12 µM in the assay filed under Rattus norvegicus.

Regarding `NC(C(=O)O)c1cc(O)no1` (stereo not given), the EC50 in assay [1] turned out to be 43 µM; in the assay filed under Rattus norvegicus, 9.6 µM.

Take `CNC(C(=O)O)c1cc(O)no1` (stereo not given): the EC50 in assay [1] was over 1000 µM; in the assay listed under Rattus norvegicus, 140 µM.

For `O=C(O)C(NCc1ccccc1)c1cc(O)no1` (stereo not given), the EC50 (in assay [1]; in the assay filed under Rattus norvegicus) was over 1000 µM in each case.

The values are drawn from ChEMBL document CHEMBL1130847, “Synthesis and pharmacology of N-alkylated derivatives of the excitotoxin ibotenic acid” (Bioorg Med Chem Lett, 1998).
